Data reported in patent publication US9527834B2, “Substituted 1-benzylquinoxalin-2(1H)-one analogs as positive allosteric modulators of muscarinic acetylcholine receptor M1” (Vanderbilt University, priority 2013, dated 2016).
pEC50: −log10 of the molar value.

Target: T1, mAChR M1 (Homo sapiens, UniProt P11229)
T1 construct: expressed in transfected cells; host or cells: CHO-K1
T1 sequence (P11229 1-460): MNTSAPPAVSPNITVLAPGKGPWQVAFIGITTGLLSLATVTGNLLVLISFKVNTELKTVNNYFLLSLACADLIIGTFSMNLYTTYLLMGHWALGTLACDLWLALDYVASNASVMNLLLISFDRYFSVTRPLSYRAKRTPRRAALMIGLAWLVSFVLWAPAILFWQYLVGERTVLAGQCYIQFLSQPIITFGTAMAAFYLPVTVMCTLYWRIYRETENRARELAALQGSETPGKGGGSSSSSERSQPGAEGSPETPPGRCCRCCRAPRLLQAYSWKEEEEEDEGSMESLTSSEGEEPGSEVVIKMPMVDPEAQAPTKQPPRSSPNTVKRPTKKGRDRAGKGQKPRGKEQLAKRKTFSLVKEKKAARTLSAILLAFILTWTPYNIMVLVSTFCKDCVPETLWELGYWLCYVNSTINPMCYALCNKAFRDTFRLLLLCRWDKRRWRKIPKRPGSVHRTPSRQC
Experiment: mAChR M1 cell-based functional assay (calcium mobilization, potentiation of EC20 acetylcholine response)
Conditions: mAChR M1-expressing CHO-K1 cells; calcium flux; >10 μM estimated for low potency (no plateau) with >20% increase in ACh response
Text: Chinese hamster ovary (CHO-K1) cells stably expressing rat (r)M1 were purchased from the American Type Culture Collection and cultured according to their indicated protocol. CHO cells stably expressing human (h)M2, hM3, and hM5 were described previously (Levey, A. I., et al., J Neurosci. 1991, 11, 3218-3226.); hM1 and hM4 cDNAs were purchased from Missouri S&T cDNA Resource; rM4 cDNA was provided by T. I. Bonner (National Institutes of Health, Bethesda, Md.). rM2 and rM3 were cloned from a rat brain cDNA library and sequence verified. hM1, rM2, rM3, hM4, and rM4 cDNAs were used to stably transfect CHO-K1 cells purchased from the American Type Culture Collection using Lipofectamine2000. […]
Calcium flux was measured using the Functional Drug Screening System (FDSS) 6000 (Hamamatsu Corporation, Tokyo, Japan) as an increase in the fluorescent static ratio. […] Agonist activity was analyzed as a concentration-dependent increase in calcium mobilization upon compound addition. Positive allosteric modulator activity was analyzed as a concentration-dependent increase in the EC20 acetylcholine response. Antagonist activity was analyzed as a concentration-dependent decrease in the EC80 acetylcholine response. […]

Row | SMILES | pEC50
1 | Cn1cc2c(-c3cc(F)c(Cn4c(=O)cnc5ccccc54)c(F)c3)cccc2n1 [Compound B1, 1-(2,6-difluoro-4-(2-methyl-2H-indazol-4-yl)benzyl)quinoxalin-2(1H)-one] | 5.46
2 | Cn1cc(-c2ccc(Cn3c(=O)cnc4ccccc43)cc2)cn1 [Compound B2] | < 5.00
